# Values quoted from earlier work in PMC3530844 (ACS medicinal chemistry letters, 2012).
# How the values were obtained:
# [1] = biological target: hD3 receptors (Homo sapiens, UniProt P35462); details: [35S]GTPγS; ref Ghosh et al., J. Med. Chem. 2010, 53, 2114-2125
# [2] = biological target: hD2 receptors (Homo sapiens, UniProt P14416); details: [35S]GTPγS; ref Ghosh et al., J. Med. Chem. 2010, 53, 2114-2125
# hD2 receptors, sequence (P14416 whole entry): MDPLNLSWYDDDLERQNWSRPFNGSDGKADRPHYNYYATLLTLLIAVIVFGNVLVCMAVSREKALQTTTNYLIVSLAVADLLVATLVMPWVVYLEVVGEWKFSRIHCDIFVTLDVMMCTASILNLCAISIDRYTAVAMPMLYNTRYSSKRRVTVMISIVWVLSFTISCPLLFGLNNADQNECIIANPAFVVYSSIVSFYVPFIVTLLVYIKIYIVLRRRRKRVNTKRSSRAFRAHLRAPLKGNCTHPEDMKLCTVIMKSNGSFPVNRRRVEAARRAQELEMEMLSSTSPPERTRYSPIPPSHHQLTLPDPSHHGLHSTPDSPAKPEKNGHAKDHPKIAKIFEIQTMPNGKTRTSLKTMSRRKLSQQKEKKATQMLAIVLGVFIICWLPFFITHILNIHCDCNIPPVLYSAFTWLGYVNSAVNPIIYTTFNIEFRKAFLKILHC
# hD3 receptors, sequence (P35462 whole entry): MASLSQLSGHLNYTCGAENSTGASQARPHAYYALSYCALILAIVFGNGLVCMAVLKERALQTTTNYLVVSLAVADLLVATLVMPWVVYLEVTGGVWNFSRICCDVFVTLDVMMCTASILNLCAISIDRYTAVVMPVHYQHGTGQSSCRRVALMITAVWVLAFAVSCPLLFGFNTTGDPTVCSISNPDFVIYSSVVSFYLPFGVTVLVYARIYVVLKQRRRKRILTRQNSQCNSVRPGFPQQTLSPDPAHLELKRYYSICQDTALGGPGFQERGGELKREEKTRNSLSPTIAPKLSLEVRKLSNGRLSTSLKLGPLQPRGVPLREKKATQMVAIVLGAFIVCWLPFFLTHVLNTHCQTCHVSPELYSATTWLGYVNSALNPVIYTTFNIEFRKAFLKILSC
smiles,measurement,setting,value
CCCN(CCC)CCc1cccc2c1CC(=O)N2 [Ropinirole],%Emax hCHO-D3,[1],67 ± 8%
same,%Emax hCHO-D2,[2],74 ± 0.9%
